Experimental findings from US20250129049A1, “1H-PYRAZOLE-3-AMINE DERIVATIVE HAVING BICYCLIC BACKBONE” (Sumitomo Pharma Co., Ltd., priority 2021, published 2025) are described below.

Assay [1] deals with ES-2 cells. Kind of assay: Cell growth suppression experiment (ES-2). It is filed as cell-based. The settings on record: Homo sapiens, 48 h, cultured 2 days, CellTiter-Glo 3D. On the procedure:
ES-2 cells were obtained from the American Type Culture Collection (ATCC). These cells were cultured at 37° C. in the presence of 5% CO2 in a McCoy's 5a medium containing 10% fetal bovine serum and 1% penicillin/streptomycin.
500 cells were seeded for each well in a 384-well plate, and the evaluated compound was added to the final DMSO concentration of 0.1% to culture the cells for 2 days. After completion of the culture, the cell viability rate was calculated using CellTiter-Glo (registered trademark) 3D Reagent (Promega, G968B).

In assay [2] the target is CHK1 kinase (Homo sapiens (Human), UniProt O14757).

Bounds are passed on as bounds.

Chain of CHK1 kinase (O14757 whole entry): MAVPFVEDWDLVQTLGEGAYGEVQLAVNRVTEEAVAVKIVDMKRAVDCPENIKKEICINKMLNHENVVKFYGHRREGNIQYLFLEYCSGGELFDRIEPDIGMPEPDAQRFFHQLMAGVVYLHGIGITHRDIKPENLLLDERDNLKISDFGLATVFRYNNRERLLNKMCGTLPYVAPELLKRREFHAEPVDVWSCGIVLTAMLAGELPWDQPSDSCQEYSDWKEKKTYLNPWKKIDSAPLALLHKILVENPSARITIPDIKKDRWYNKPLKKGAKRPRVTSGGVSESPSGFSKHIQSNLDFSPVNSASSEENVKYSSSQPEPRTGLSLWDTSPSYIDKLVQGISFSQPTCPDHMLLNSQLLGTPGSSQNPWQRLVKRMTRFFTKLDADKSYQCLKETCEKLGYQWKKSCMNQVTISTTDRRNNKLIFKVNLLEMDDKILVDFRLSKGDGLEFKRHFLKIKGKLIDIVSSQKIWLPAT

`C=C(CN)COc1cnc2c(c1-c1cc(Nc3cnc(C#N)cn3)n[nH]1)OCC2` [Example 31, 5-{[5-(6-{[2-(aminomethyl)prop-2-en-1-yl]oxy)-2,3-dihydrofuro[3,2-b]pyridin-7-yl)-1H-pyrazol-3-yl]amino}pyrazine-2-carbonitrile]: the IC50 (usually the concentration needed to halve the response being measured) in assay [1] stood at 13.8 nM; in assay [2], 0.31 nM.
The corresponding values for `N#Cc1cnc(Nc2cc(-c3c(OCC4(CN)CC(F)(F)C4)cnc4cccnc34)[nH]n2)cn1` [Example 38, 5-{[5-(3-{[1-(aminomethyl)-3,3-difluorocyclobutyl]methoxy)-1,5-naphthyridin-4-yl)-1H-pyrazol-3-yl]amino}pyrazine-2-carbonitrile] are 8.1 nM and 0.93 nM.
Turning to `N#Cc1cnc(Nc2cc(-c3c(OCCCN)cnc4c3OCC4)[nH]n2)cn1` [Example 13, 5-({5-[6-(3-aminopropoxy)-2,3-dihydrofuro[3,2-b]pyridin-7-yl]-1H-pyrazol-3-yl}amino)pyrazine-2-carbonitrile], the IC50 in assay [1] turned out to be 20 nM; in assay [2], 0.42 nM.
As for `N#Cc1cnc(Nc2cc(-c3c(OCCCN)ccc4ccoc34)[nH]n2)cn1` [Example 2, 5-({5-[6-(3-aminopropoxy)-1-benzofuran-7-yl]-1H-pyrazol-3-yl}amino)pyrazine-2-carbonitrile], the 50% inhibitory concentration (IC50) in assay [1] was determined as 2.9 nM; in assay [2], 0.25 nM.
As for `N#Cc1cnc(Nc2cc(-c3c(O[C@@H]4CCC[C@H]4CN)cnc4cccnc34)[nH]n2)cn1` [Example 34, 5-{[5-(3-{[(1R,2S)-2-(aminomethyl)cyclopentyl]oxy}-1,5-naphthyridin-4-yl)-1H-pyrazol-3-yl]amino}pyrazine-2-carbonitrile], the IC50 in assay [1] was found to be 5.5 nM; in assay [2], 0.75 nM.
The like results for `N#Cc1cnc(Nc2cc(-c3c(OCC4(CN)CC4)ccc4ccnn34)[nH]n2)cn1` [Example 17, 5-{[5-(6-{[1-(aminomethyl)cyclopropyl]methoxy)pyrazolo[1,5-a]pyridin-7-yl)-1H-pyrazol-3-yl]amino}pyrazine-2-carbonitrile] were, in that order, 3.7 nM and 0.27 nM.
The corresponding values for `CNCCCOc1cnc2c(c1-c1cc(Nc3cnc(C#N)cn3)n[nH]1)OCC2` [Example 27, 5-[(5-{6-[3-(methylamino)propoxy]-2,3-dihydrofuro[3,2-b]pyridin-7-yl}-1H-pyrazol-3-yl)amino]pyrazine-2-carbonitrile] are 8.5 nM and 0.22 nM.
In assay [1], `N#Cc1cnc(Nc2cc(-c3c(O[C@@H]4CC[C@@H](N)C4)cnc4c3OCC4)[nH]n2)cn1` [Example 21, 5-{[5-(6-{[(1R,3R)-3-aminocyclopentyl]oxy)-2,3-dihydrofuro[3,2-b]pyridin-7-yl)-1H-pyrazol-3-yl]amino}pyrazine-2-carbonitrile] gave an IC50 of 11.8 nM.
For `COC(=O)c1cnc(Nc2cc(-c3c(OCCCN)cnc4c3OCC4)[nH]n2)cn1` [Example 33, methyl 5-({5-[6-(3-aminopropoxy)-2,3-dihydrofuro[3,2-b]pyridin-7-yl]-1H-pyrazol-3-yl}amino)pyrazine-2-carboxylate], the IC50 in assay [1] was > 1000 nM; in assay [2] it was 9.28 nM.
Regarding `N#Cc1cnc(Nc2cc(-c3c(OCC4(CN)CC4)ccc4ccoc34)[nH]n2)cn1` [Example 19, 5-{[5-(6-{[1-(aminomethyl)cyclopropyl]methoxy}-1-benzofuran-7-yl}-1H-pyrazol-3-yl]amino}pyrazine-2-carbonitrile], the results for the 50% inhibitory concentration (IC50) in assay [1] and in assay [2] were 4.6 nM and 0.26 nM, respectively.
The like results for `C[C@@H](CN)COc1cnc2c(c1-c1cc(Nc3cnc(C#N)cn3)n[nH]1)OCC2` [Example 30, 5-[(5-{6-[(2S)-3-amino-2-methylpropoxy]-2,3-dihydrofuro[3,2-b]pyridin-7-yl}-1H-pyrazol-3-yl)amino]pyrazine-2-carbonitrile] were, in that order, 14.8 nM and 0.43 nM.
For `Cc1nc2ccc(OCCCN)c(-c3cc(Nc4cnc(C#N)cn4)n[nH]3)c2o1` [Example 16, 5-({5-[6-(3-aminopropoxy)-2-methyl-1,3-benzoxazol-7-yl]-1H-pyrazol-3-yl}amino)pyrazine-2-carbonitrile], the IC50 is 489 nM in assay [1] and 0.45 nM in assay [2].
On to `N#Cc1cnc(Nc2cc(-c3c(OCC4(F)CNC4)cnc4c3OCC4)[nH]n2)cn1` [Example 23, 5-[(5-{6-[(3-fluoroazetidin-3-yl)methoxy]-2,3-dihydrofuro[3,2-b]pyridin-7-yl}-1H-pyrazol-3-yl)amino]pyrazine-2-carbonitrile], for which the IC50 is 6.8 nM in assay [1] and 0.3 nM in assay [2].
The corresponding values for `N#Cc1cnc(Nc2cc(-c3c(OCCCN)ccc4cccnc34)[nH]n2)cn1` [Example 1, 5-({5-[7-(3-aminopropoxy)quinolin-8-yl]-1H-pyrazol-3-yl}amino)pyrazine-2-carbonitrile] are 4.9 nM and 0.37 nM.
Take `N#Cc1cnc(Nc2cc(-c3c(O[C@@H]4CCC[C@H](N)C4)cnc4cccnc34)[nH]n2)cn1` [Example 36, 5-{[5-(3-{[(1R,3S)-3-aminocyclohexyl]oxy}-1,5-naphthyridin-4-yl)-1H-pyrazol-3-yl]amino}pyrazine-2-carbonitrile]: the IC50 in assay [1] was 6 nM; in assay [2], 0.46 nM.
The corresponding values for `N#Cc1cnc(Nc2cc(-c3c(OCCCN)cnc4ccnn34)[nH]n2)cn1` [Example 7, 5-({5-[6-(3-aminopropoxy)pyrazolo[1,5-a]pyrimidin-7-yl]-1H-pyrazol-3-yl}amino)pyrazine-2-carbonitrile] are 469 nM and 1.71 nM.
Regarding `N#Cc1cnc(Nc2cc(-c3c(OCC4(C(F)F)CNC4)cnc4c3OCC4)[nH]n2)cn1` [Example 22, 5-{[5-(6-{[3-(difluoromethyl)azetidin-3-yl]methoxy}-2,3-dihydrofuro[3,2-b]pyridin-7-yl)-1H-pyrazol-3-yl]amino}pyrazine-2-carbonitrile], the concentration for half-maximal inhibition (IC50) in assay [1] came out at 13.7 nM; in assay [2] it was 0.39 nM.
On to `N#Cc1cnc(Nc2cc(-c3c(OCC(F)(F)CN)cnc4cccnc34)[nH]n2)cn1` [Example 9, 5-({5-[3-(3-amino-2,2-difluoropropoxy)-1,5-naphthyridin-4-yl]-1H-pyrazol-3-yl}amino)pyrazine-2-carbonitrile], for which the IC50 in assay [1] stood at 4.7 nM; in assay [2], 0.64 nM.
The corresponding values for `NCCCOc1cnc2c(c1-c1cc(Nc3cnc(Cl)cn3)n[nH]1)OCC2` [Example 32, N-{5-[6-(3-aminopropoxy)-2,3-dihydrofuro[3,2-b]pyridin-7-yl]-1H-pyrazol-3-yl}-5-chloropyrazin-2-amine] are 21.5 nM and 0.33 nM.
In turn, `N#Cc1cnc(Nc2cc(-c3c(OCC4(CN)CC4(F)F)ccc4ccoc34)[nH]n2)cn1` (centres unmarked) [Example 20, 5-{[5-(6-{[1-(aminomethyl)-2,2-difluorocyclopropyl]methoxy)-1-benzofuran-7-yl)-1H-pyrazol-3-yl]amino}pyrazine-2-carbonitrile] displayed an IC50 in assay [1] of 16.3 nM.
Still for that read-out and setting: the same measure for `CC1(COc2ccc3c(c2-c2cc(Nc4cnc(C#N)cn4)n[nH]2)OCC3)CNC1` [Example 5, 5-[(5-{6-[(3-methylazetidin-3-yl)methoxy]-2,3-dihydro-1-benzofuran-7-yl}-1H-pyrazol-3-yl)amino]pyrazine-2-carbonitrile]: 6.7 nM.
With `N#Cc1cnc(Nc2cc(-c3c(OC[C@H]4CCNC4)cnc4c3OCC4)[nH]n2)cn1` [Example 26, 5-{[5-(6-{[(3S)-pyrrolidin-3-yl]methoxy}-2,3-dihydrofuro[3,2-b]pyridin-7-yl)-1H-pyrazol-3-yl]amino}pyrazine-2-carbonitrile], the IC50 stood at 9.4 nM in assay [1] and 0.34 nM in assay [2].
The like results for `CC1(COc2cnc3cccnc3c2-c2cc(Nc3cnc(C#N)cn3)n[nH]2)CNC1` [Example 11, 5-[(5-{3-[(3-methylazetidin-3-yl)methoxy]-1,5-naphthyridin-4-yl}-1H-pyrazol-3-yl)amino]pyrazine-2-carbonitrile] were, in that order, 14.8 nM and 0.39 nM.
As for `C[C@@H](Oc1cnc2c(c1-c1cc(Nc3cnc(C#N)cn3)n[nH]1)OCC2)C1CNC1` [Example 25, 5-[(5-{6-[(1R)-1-(azetidin-3-yl)ethoxy]-2,3-dihydrofuro[3,2-b]pyridin-7-yl}-1H-pyrazol-3-yl)amino]pyrazine-2-carbonitrile], the IC50 was determined as 6.4 nM in assay [1] and 0.43 nM in assay [2].
Turning to `CC1(COc2cnc3c(c2-c2cc(Nc4cnc(C#N)cn4)n[nH]2)OCC3)CNC1` [Example 15, 5-[(5-{6-[(3-methylazetidin-3-yl)methoxy]-2,3-dihydrofuro[3,2-b]pyridin-7-yl}-1H-pyrazol-3-yl)amino]pyrazine-2-carbonitrile], the IC50 is 7.2 nM in assay [1] and 0.23 nM in assay [2].
Regarding `N#Cc1cnc(Nc2cc(-c3c(OCC4(CN)CC4)cnc4cccnc34)[nH]n2)cn1` [Example 10, 5-{[5-(3-{[1-(aminomethyl)cyclopropyl]methoxy}-1,5-naphthyridin-4-yl)-1H-pyrazol-3-yl]amino}pyrazine-2-carbonitrile], the IC50 is 6.6 nM in assay [1] and 0.34 nM in assay [2].
The like results for `N#Cc1cnc(Nc2cc(-c3c(O[C@@H]4CC[C@@H](N)C4)cnc4cccnc34)[nH]n2)cn1` [Example 37, 5-{[5-(3-{[(1R,3R)-3-aminocyclopentyl]oxy}-1,5-naphthyridin-4-yl)-1H-pyrazol-3-yl]amino}pyrazine-2-carbonitrile] were, in that order, 6.8 nM and 0.49 nM.
Consider `CC1(COc2ccc3ccnn3c2-c2cc(Nc3cnc(C#N)cn3)n[nH]2)CNC1` [Example 18, 5-[(5-{6-[(3-methylazetidin-3-yl)methoxy]pyrazolo[1,5-a]pyridin-7-yl)-1H-pyrazol-3-yl)amino]pyrazine-2-carbonitrile], for which the concentration for half-maximal inhibition (IC50) in assay [1] stood at 4.7 nM; in assay [2], 0.34 nM.
